Experimental data taken from ChEMBL document CHEMBL1130605, “Conformationally restricted carbamate inhibitors of horse serum butyrylcholinesterase” (Bioorg Med Chem Lett, 1998).

Legend:
Butyrylcholinesterase [1] = molecular target: T1, Butyrylcholinesterase (Equus caballus, UniProt Q9N1N9); assay: Tested for kinetic data for the horse serum Butyrylcholinesterase-Catalyzed Hydrolysis of Butyrylthiocholine; 10e-3/M. sec
Butyrylcholinesterase [2] = molecular target: T1, Butyrylcholinesterase; assay: Compound was evaluated for irreversible inhibition of Horse serum Butyrylcholinesterase
[3] = molecular target: Butyrylcholinesterase (Equus caballus) (UniProt Q9N1N9)
Butyrylcholinesterase [4] = molecular target: T1, Butyrylcholinesterase; assay: Compound was evaluated for its inhibitory concentration against Horse serum Butyrylcholinesterase

| SMILES | Ki (Butyrylcholinesterase [1]) | Ki (Butyrylcholinesterase [2]) | k2 [3] | IC50 (Butyrylcholinesterase [4]) |
| --- | --- | --- | --- | --- |
| CCCCNC(=O)OC1C2CC3CC(C2)CC1C3 (centres undefined) | 1.8 10e3* M-1 s-1 | 800 nM | 1.4 10e-3 s-1 | – |
| CCCCNC(=O)OC12CC3CC(CC(C3)C1)C2 | 1.9 10e3* M-1 s-1 | 800 nM | 1.5 10e-3 s-1 | – |
| CCCCNC(=O)OC1C[C@H]2CCC1C2 (stereo in doubt; 1) [listing 1 of 2 here] | 110 10e3* M-1 s-1 | 20 nM | – | – |
| CCCCNC(=O)OC1C[C@H]2CCC1C2 (stereo in doubt; 1) [listing 2 of 2 here] | – | – | 2.2 10e-3 s-1 | – |
| CCCCNC(=O)OC1C[C@H]2CCC1C2 (stereo in doubt; 2) [listing 1 of 2 here] | 2.2 10e3* M-1 s-1 | 420 nM | – | – |
| CCCCNC(=O)OC1C[C@H]2CCC1C2 (stereo in doubt; 2) [listing 2 of 2 here] | – | – | 0.92 10e-3 s-1 | – |
| CC[N+](C)(C)c1cccc(O)c1 [EDROPHONIUM BROMIDE] | – | 340000 nM | – | – |
| CNC(=O)Oc1ccc2c(c1)[C@]1(C)CCN(C)[C@@H]1N2C [PHYSOSTIGMINE] | – | – | – | 16 nM |
